Here are results for 7 molecules from ChEMBL document CHEMBL1156591, “Selective inhibitory effects of hybrid liposomes on the growth of HIV type 1-infected cells in vitro” (Bioorg Med Chem Lett, 2008).

Assay [1] relates to Human immunodeficiency virus 1. The assay can be described thus: Growth inhibition of HIV1 3B infected human MOLT4 cells after 5 days by MTT assay. Format: functional, organism-based. Conditions: Human immunodeficiency virus 1, 3B, MOLT-4, 120 h. A general note: Tetrazolium assays rely on reduction of a dye to a coloured formazan, in cell work by metabolically active cells.
Another assay has as its system MOLT-4. The assay can be described thus: Growth inhibition of human MOLT4 cells after 5 days by MTT assay. As to conditions: MOLT-4, 120 h. Format: cell-based.

A word on the IC50: it is the concentration at which inhibition is half-maximal. As for `CCCCCCCCCCCCOCCOCCOCCOCCOCCOCCOCCOCCOCCOCCOCCOCCOCCOCCOCCOCCOCCOCCOCCOCCOCCOCCOCCOCCOCCO`, the IC50 in assay [1] turned out to be 40 µM; in the assay on MOLT-4, 221 µM.

As to `CCCCCCCCCCCCOCCOCCOCCOCCOCCOCCOCCOCCOCCOCCOCCOCCOCCOCCOCCOCCOCCOCCOCCOCCOCCOCCOCCO`, the values for the half-inhibitory concentration (IC50) (in assay [1]; in the assay on MOLT-4) were 47 µM and 190 µM, respectively.

For the molecule `CCCCCCCCCCCCCC(=O)OC[C@H](COP(=O)([O-])OCC[N+](C)(C)C)OC(=O)CCCCCCCCCCCCC` [DIMYRISTOYLPHOSPHATIDYLCHOLINE], the IC50 in assay [1] amounted to 50 µM; in the assay with MOLT-4, 293 µM.

Consider `CCCCCCCCCCCCOCCOCCOCCOCCOCCOCCOCCOCCO`, for which the IC50 in assay [1] came out at 29 µM; with MOLT-4, 59 µM.

In the case of `CCCCCCCCCCCCOCCOCCOCCOCCOCCOCCOCCOCCOCCOCCOCCOCCOCCOCCOCCOCCOCCOCCOCCOCCOCCO`, the IC50 in assay [1] was found to be 34 µM; in the assay on MOLT-4, 121 µM.

On to `CCCCCCCCCCCCOCCOCCOCCOCCO` [LAURETH 4], for which the half-inhibitory concentration (IC50) in assay [1] is 37 µM; with MOLT-4, 118 µM.

Regarding `CCCCCCCCCCCCOCCOCCOCCOCCOCCOCCOCCOCCOCCOCCO`, the IC50 was 26 µM in assay [1] and 41 µM with MOLT-4.
